Test results from the supplement of paper PMC10307832.

How the values were obtained:
Experiment in all cases: relative viability (nuclei count vs DMSO), 5 days (fraction); higher = more cells survive
Selumetinib + Olaparib = compound: Cn1cnc2c(F)c(Nc3ccc(Br)cc3Cl)c(C(=O)NOCCO)cc21 [Selumetinib] + O=C(c1cc(Cc2n[nH]c(=O)c3ccccc23)ccc1F)N1CCN(C(=O)C2CC2)CC1 [Olaparib] (partner 8 µM)
In short: (§1)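 Lung cancer cell lines were seeded in 1536-well plates and dosed by pin tool the next day, with either a single drug or a fixed anchor-drug dose combined with five library-drug doses (not always all listed) spaced in √10 steps. Five days later, one step fixed the cells and stained their nuclei (final 0.05% Triton X-100, 1% formaldehyde, 1 ug/ml Hoechst), and nuclei were counted on 4× images. Relative viability is the nuclei count in treated wells divided by the count in vehicle wells, and each value is the median of duplicate plates.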

Venetoclax + Linsitinib = compound: CC1(C)CCC(CN2CCN(c3ccc(C(=O)NS(=O)(=O)c4ccc(NCC5CCOCC5)c([N+](=O)[O-])c4)c(Oc4cnc5[nH]ccc5c4)c3)CC2)=C(c2ccc(Cl)cc2)C1 [Venetoclax] + C[C@]1(O)C[C@@H](c2nc(-c3ccc4ccc(-c5ccccc5)nc4c3)c3c(N)nccn32)C1 [Linsitinib] (partner 1 µM)
In short: as §1

Selumetinib + Pemetrexed = compound: Cn1cnc2c(F)c(Nc3ccc(Br)cc3Cl)c(C(=O)NOCCO)cc21 [Selumetinib] + Nc1nc2[nH]cc(CCc3ccc(C(=O)N[C@@H](CCC(=O)O)C(=O)O)cc3)c2c(=O)[nH]1 [Pemetrexed] (partner 0.2 µM)
In short: as §1

Selumetinib + Crizotinib = compound: Cn1cnc2c(F)c(Nc3ccc(Br)cc3Cl)c(C(=O)NOCCO)cc21 [Selumetinib] + C[C@@H](Oc1cc(-c2cnn(C3CCNCC3)c2)cnc1N)c1c(Cl)ccc(F)c1Cl [Crizotinib] (partner 1 µM)
In short: as §1

Cell Line	relative viability (Selumetinib + Olaparib; first compound 0.02 µM)	relative viability (Selumetinib + Olaparib; first compound 0.06325 µM)	relative viability (Selumetinib + Olaparib; first compound 0.2 µM)	relative viability (Selumetinib + Olaparib; first compound 0.6325 µM)	relative viability (Venetoclax + Linsitinib; first compound 0.01 µM)	relative viability (Venetoclax + Linsitinib; first compound 0.03162 µM)	relative viability (Venetoclax + Linsitinib; first compound 0.1 µM)	relative viability (Venetoclax + Linsitinib; first compound 0.3162 µM)	relative viability (Venetoclax + Linsitinib; first compound 1 µM)	relative viability (Selumetinib + Pemetrexed; first compound 0.02 µM)	relative viability (Selumetinib + Pemetrexed; first compound 0.06325 µM)	relative viability (Selumetinib + Pemetrexed; first compound 0.2 µM)	relative viability (Selumetinib + Pemetrexed; first compound 0.6325 µM)	relative viability (Selumetinib + Crizotinib; first compound 0.02 µM)	relative viability (Selumetinib + Crizotinib; first compound 0.06325 µM)	relative viability (Selumetinib + Crizotinib; first compound 0.2 µM)	relative viability (Selumetinib + Crizotinib; first compound 0.6325 µM)
NCI-H1915	0.259	0.248	0.214	0.192	1.02	1.11	0.982	1.07	1.03	0.519	0.449	0.533	0.373	0.876	0.849	0.677	0.467
HCC-827	0.705	0.672	0.681	0.719	0.997	0.973	1	0.978	0.87	0.25	0.277	0.269	0.288	0.945	0.913	0.869	0.83
LC-2-ad	0.8	0.503	0.757	0.672	0.807	0.904	0.785	0.848	0.798	0.263	0.269	0.273	0.277	0.397	0.446	0.431	0.405
NCI-H460	0.433	0.384	0.342	0.225	0.827	0.829	0.665	0.632	0.726	0.0568	0.082	0.0617	0.0698	0.852	0.714	0.672	0.544
NCI-H441	0.613	0.609	0.517	0.444	0.445	0.716	0.568	0.482	0.511	0.283	0.248	0.275	0.308	0.724	0.858	0.78	0.556
LCLC-97TM1	0.292	0.407	0.3	0.19		0.197	0.158	0.182	0.198	0.186	0.237	0.219	0.258	0.527	0.496	0.467	0.504
COR-L23	0.404	0.385	0.414	0.446	0.864	0.953	0.879	0.897	0.815	0.202	0.217	0.21	0.194	0.798	0.653	0.556	0.622
NCI-H2228	0.754	0.69	0.685	0.608	0.717	0.754	0.631	0.724	0.625	0.375	0.394	0.333	0.33	0.527	0.595	0.351	0.413
LCLC-103H	0.656	0.703	0.66	0.663	1.1	1.24	1.16	1.13	0.989	0.437	0.479	0.5	0.519	1.02	0.846	0.857	0.948
NCI-H1993	1.16	0.808	0.876	0.795	0.73	0.651	0.739	0.775	0.749	0.614	0.571	0.553	0.651	0.781	0.766	0.749	0.748
NCI-H1793	0.765	0.531	0.421	0.39	0.905	1.04	0.692	0.818	0.778	0.782	0.601	0.435	0.517				
NCI-H727	0.665	0.558	0.383	0.431	0.334	0.344	0.201	0.293	0.296					0.558	0.348	0.316	0.255
ChaGo-K-1	0.43	0.414	0.398	0.39						0.258	0.258	0.275	0.256	1.12	1.18	1.11	1.17
NCI-H522	0.676	0.74	0.542	0.581						0.962	0.942	1	0.783				
NCI-H1648		0.914	0.742	0.493							0.838	0.956	0.904				
NCI-H1650	0.669	0.654	0.712	0.646						0.304	0.338	0.331	0.295	0.97	0.863	0.888	0.786
NCI-H2342	0.403	0.4	0.43	0.415						0.778	0.7	0.758	0.839				
NCI-H1299	1.08	1.08	1.11	0.932	0.987	1.02	1.06	0.926	0.936					1.06	0.961	0.939	0.84
SW 900	0.96	0.798	0.788	0.843						0.474	0.449	0.454	0.441				
NCI-H1395	0.452	0.488	0.482	0.46	0.951	0.996	1.04	1.25	1.11	0.837	0.868	0.694	0.92				
A549	0.284	0.295	0.325	0.265	0.586	0.597	0.524	0.568	0.558					0.715	0.656	0.495	0.402
NCI-H2170	0.62	0.594	0.649	0.568						0.236	0.266	0.254	0.265	1.17	1.11	1.03	1.15
ABC-1	0.885	0.726	0.737	0.768	0.7	0.878	0.697	0.81	0.813					1.57	1.03	1.11	1.12
